Reference: the supplement of paper PMC8960247
Structures can show the parent of a compound that is named as a salt. ± gives the standard error.

Assays:
621-102 (TSC2-deficient) = assay: relative viability vs DMSO; higher = less cytotoxic; settings: serum: 10% FBS, 72 h
621-103 (TSC2-rescued) = assay: as above; settings: serum: 10% FBS, 72 h
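Note: immortalized renal angiomyolipoma cells stably carrying empty vector or TSC2, dosed in 384-well plates in DMEM, viability normalized to vehicle-treated wells within each plate.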

With `FC(F)(F)c1ccc(Nc2nc3ccc(Oc4ccnc(-c5ncc(C(F)(F)F)[nH]5)c4)cc3[nH]2)cc1` [Raf265 derivative] the relative viability (621-102 (TSC2-deficient); 0.0001 µM) was 113.2 ± 0.3%, the relative viability (621-102 (TSC2-deficient); 0.001 µM) was 94.5 ± 1.8% and the relative viability (621-102 (TSC2-deficient); 0.01 µM) was 106.8 ± 0.2%. For the same molecule, the relative viability (621-102 (TSC2-deficient); 0.1 µM) was 112 ± 4.1%, the relative viability (621-102 (TSC2-deficient); 1 µM) was 102 ± 6.6% and the relative viability (621-102 (TSC2-deficient); 10 µM) was 72.52 ± 0.56%. The relative viability (621-103 (TSC2-rescued); 0.0001 µM) was 110 ± 2.7%, the relative viability (621-103 (TSC2-rescued); 0.001 µM) was 108 ± 6.7% and the relative viability (621-103 (TSC2-rescued); 0.01 µM) was 94.7 ± 5%. For the same molecule, the relative viability (621-103 (TSC2-rescued); 0.1 µM) was 103 ± 5.7%, the relative viability (621-103 (TSC2-rescued); 1 µM) was 101 ± 4.6% and the relative viability (621-103 (TSC2-rescued); 10 µM) was 73.2 ± 7%.

`Cc1nnc(C(=O)NC(C)(C)c2nc(C(=O)NCc3ccc(F)cc3)c(O)c(=O)n2C)o1` [Raltegravir] showed a relative viability (621-102 (TSC2-deficient); 0.0001 µM) of 106 ± 3.9%, a relative viability (621-102 (TSC2-deficient); 0.001 µM) of 106 ± 3.1% and a relative viability (621-102 (TSC2-deficient); 0.01 µM) of 108 ± 4.3%. It also gave a relative viability (621-102 (TSC2-deficient); 0.1 µM) of 101.8 ± 0.33%, a relative viability (621-102 (TSC2-deficient); 1 µM) of 110 ± 3.2% and a relative viability (621-102 (TSC2-deficient); 10 µM) of 106 ± 3.2%. For the same molecule, the relative viability (621-103 (TSC2-rescued); 0.0001 µM) was 99.5 ± 3%, the relative viability (621-103 (TSC2-rescued); 0.001 µM) was 101 ± 1.5% and the relative viability (621-103 (TSC2-rescued); 0.01 µM) was 100 ± 1.3%. The relative viability (621-103 (TSC2-rescued); 0.1 µM) was 98.8 ± 1.3%, the relative viability (621-103 (TSC2-rescued); 1 µM) was 101 ± 1.4% and the relative viability (621-103 (TSC2-rescued); 10 µM) was 105 ± 2.1%.

`Cc1nc(=O)c2cc(CN(C)c3ccc(C(=O)N[C@@H](CCC(=O)O)C(=O)O)s3)ccc2[nH]1` [Raltitrexed (Tomudex)] showed a relative viability (621-102 (TSC2-deficient); 0.0001 µM) of 86.7 ± 3.5%, a relative viability (621-102 (TSC2-deficient); 0.001 µM) of 92.8 ± 1.6% and a relative viability (621-102 (TSC2-deficient); 0.01 µM) of 107 ± 1.7%. For the same molecule, the relative viability (621-102 (TSC2-deficient); 0.1 µM) was 103.6 ± 0.8%, the relative viability (621-102 (TSC2-deficient); 1 µM) was 92.5 ± 1.6% and the relative viability (621-102 (TSC2-deficient); 10 µM) was 80.3 ± 1.2%. The relative viability (621-103 (TSC2-rescued); 0.0001 µM) was 99.1 ± 5.1%, the relative viability (621-103 (TSC2-rescued); 0.001 µM) was 97.1 ± 4.5% and the relative viability (621-103 (TSC2-rescued); 0.01 µM) was 115 ± 4.2%. The relative viability (621-103 (TSC2-rescued); 0.1 µM) was 113 ± 1.8%, the relative viability (621-103 (TSC2-rescued); 1 µM) was 102.7 ± 0.7% and the relative viability (621-103 (TSC2-rescued); 10 µM) was 96.3 ± 3.2%.

`CCOC(=O)[C@H](CCc1ccccc1)N[C@@H](C)C(=O)N1[C@H](C(=O)O)C[C@@H]2CCC[C@@H]21` [Ramipril] gave a relative viability (621-102 (TSC2-deficient); 0.0001 µM) of 107.5 ± 1%, a relative viability (621-102 (TSC2-deficient); 0.001 µM) of 108 ± 2.2% and a relative viability (621-102 (TSC2-deficient); 0.01 µM) of 102.3 ± 0.74%. It also gave a relative viability (621-102 (TSC2-deficient); 0.1 µM) of 106 ± 4.6%, a relative viability (621-102 (TSC2-deficient); 1 µM) of 108 ± 2.3% and a relative viability (621-102 (TSC2-deficient); 10 µM) of 106.9 ± 0.7%. It also gave a relative viability (621-103 (TSC2-rescued); 0.0001 µM) of 104 ± 5.8%, a relative viability (621-103 (TSC2-rescued); 0.001 µM) of 104 ± 2.4% and a relative viability (621-103 (TSC2-rescued); 0.01 µM) of 92.3 ± 11%. For the same molecule, the relative viability (621-103 (TSC2-rescued); 0.1 µM) was 106 ± 0.85%, the relative viability (621-103 (TSC2-rescued); 1 µM) was 102 ± 5% and the relative viability (621-103 (TSC2-rescued); 10 µM) was 111 ± 1.6%.

`CNC(=C[N+](=O)[O-])NCCSCc1ccc(CN(C)C)o1` [Ranitidine HCl] was tested, and the relative viability (621-102 (TSC2-deficient); 0.0001 µM) was 103 ± 8.4%, the relative viability (621-102 (TSC2-deficient); 0.001 µM) was 104 ± 0.46% and the relative viability (621-102 (TSC2-deficient); 0.01 µM) was 101 ± 2.8%. The relative viability (621-102 (TSC2-deficient); 0.1 µM) was 97.8 ± 2.7%, the relative viability (621-102 (TSC2-deficient); 1 µM) was 105 ± 2.8% and the relative viability (621-102 (TSC2-deficient); 10 µM) was 97.6 ± 0.51%. It also gave a relative viability (621-103 (TSC2-rescued); 0.0001 µM) of 107 ± 3.1%, a relative viability (621-103 (TSC2-rescued); 0.001 µM) of 106 ± 3.6% and a relative viability (621-103 (TSC2-rescued); 0.01 µM) of 103.5 ± 0.96%. For the same molecule, the relative viability (621-103 (TSC2-rescued); 0.1 µM) was 106 ± 1.3%, the relative viability (621-103 (TSC2-rescued); 1 µM) was 103 ± 3% and the relative viability (621-103 (TSC2-rescued); 10 µM) was 100.1 ± 0.51%.

For `CO[C@H]1C[C@@H]2CC[C@@H](C)[C@@](O)(O2)C(=O)C(=O)N2CCCC[C@H]2C(=O)O[C@H]([C@H](C)C[C@@H]2CC[C@@H](O)[C@H](OC)C2)CC(=O)[C@H](C)/C=C(\C)[C@@H](O)[C@@H](OC)C(=O)[C@H](C)C[C@H](C)/C=C/C=C/C=C/1C` [Rapamycin (Sirolimus)], the relative viability (621-102 (TSC2-deficient); 0.0001 µM) was 37 ± 2.8%, the relative viability (621-102 (TSC2-deficient); 0.001 µM) was 43.2 ± 5% and the relative viability (621-102 (TSC2-deficient); 0.01 µM) was 38.8 ± 3.9%. The relative viability (621-102 (TSC2-deficient); 0.1 µM) was 41.6 ± 2.9%, the relative viability (621-102 (TSC2-deficient); 1 µM) was 44.6 ± 5.5% and the relative viability (621-102 (TSC2-deficient); 10 µM) was 44.8 ± 2%. For the same molecule, the relative viability (621-103 (TSC2-rescued); 0.0001 µM) was 80.829 ± 0.071%, the relative viability (621-103 (TSC2-rescued); 0.001 µM) was 63.1 ± 2.6% and the relative viability (621-103 (TSC2-rescued); 0.01 µM) was 70 ± 2.1%. The relative viability (621-103 (TSC2-rescued); 0.1 µM) was 78.1 ± 1.8%, the relative viability (621-103 (TSC2-rescued); 1 µM) was 71.36 ± 0.67% and the relative viability (621-103 (TSC2-rescued); 10 µM) was 68.1 ± 2.8%.

`CC(NCCc1ccc(O)cc1)C(O)c1ccc(O)cc1` (centres undefined) [Ritodrine HCl] showed a relative viability (621-102 (TSC2-deficient); 0.0001 µM) of 110 ± 1.6%, a relative viability (621-102 (TSC2-deficient); 0.001 µM) of 112.1 ± 0.64% and a relative viability (621-102 (TSC2-deficient); 0.01 µM) of 101 ± 2.7%. The relative viability (621-102 (TSC2-deficient); 0.1 µM) was 100 ± 1.3%, the relative viability (621-102 (TSC2-deficient); 1 µM) was 100 ± 1.4% and the relative viability (621-102 (TSC2-deficient); 10 µM) was 102 ± 6.3%. It also gave a relative viability (621-103 (TSC2-rescued); 0.0001 µM) of 100 ± 5%, a relative viability (621-103 (TSC2-rescued); 0.001 µM) of 98 ± 2.1% and a relative viability (621-103 (TSC2-rescued); 0.01 µM) of 102 ± 2.8%. It also gave a relative viability (621-103 (TSC2-rescued); 0.1 µM) of 98.2 ± 6.2%, a relative viability (621-103 (TSC2-rescued); 1 µM) of 97.3 ± 6.2% and a relative viability (621-103 (TSC2-rescued); 10 µM) of 86.5 ± 1.5%.
